We go through 53 compounds from patent US11718614B2, “Compounds and methods for treatment of hedgehog pathway associated conditions” (Suzhou Mednes Pharma Tech Co., Ltd., priority 2018, dated 2023).

The first test deals with tumor cells from medulloblastoma developed from mice with deficiency in Patched1 gene. Briefly: MB assay: survival of medulloblastoma tumor cells by MTT after 48 hours. It is filed as cell-based. To be noted: Mus musculus, tumor cells treated 48 hours, cell survival by MTT. Here is the method:
To test the effect of the novel compounds on the proliferation of tumor cell, we isolated tumor cells from medulloblastoma developed from mice with deficiency in Patched1 gene. Tumor cells were plated in vitro as previously described, and treated with various concentration of compounds for 48 hours. Tumor cells cultured were then harvested to measure cell survival based on MTT assay. The IC50 value for each compound was calculated using Prism the statistical software.
Table 1 below summarizes the IC50 data obtained using MB assay for exemplary compounds of the invention. IC50 values are shown as A, B, C, or D. A represents IC50 value between 1.0 μM and 5.0 μM; B is between 5.0 μM and 10 μM; C is between 10 μM to 20 μM; and D indicates greater than 20 μM.
As to `CC(C)Cc1ccc(C(C)c2nc3cc(Br)ccc3n2Cc2ccccc2Cl)cc1` (centres unmarked) [Compound 52], the IC50 (as a rule, the concentration that gives 50% inhibition) is > 20 µM.
For the compound `CCOC(=O)C(C)(C)Cc1c([S+]([O-])CC(C)(C)C)c2cc(C(C)C)ccc2n1Cc1ccc(Cl)cc1` (centres unmarked) [Compound 6], the IC50 was 10 to 20 µM.
Take `COc1ccc2c(c1)nc(-c1ccc(CC(C)C)cc1)n2Cc1ccccc1Cl` [Compound 50]: the IC50 was 10 to 20 µM.
As to `COc1cnc2c(c1)c(SC(C)(C)C)c(CC(C)(C)C(=O)O)n2Cc1ccc(Cl)cc1` [Compound 17], the concentration for half-maximal inhibition (IC50) is > 20 µM.
In the case of `CC(C)C(=O)c1c(CC(C)(C)C(=O)O)n(Cc2ccc(Cl)cc2)c2ccc(C(C)C)cc12` [Compound 9, 3-(1-(4-chlorobenzyl)-3-isobutyryl-5-isopropyl-1H-indol-2-yl)-2,2-dimethylpropanoic Acid], the IC50 fell in the range of 10 to 20 µM.
For the compound `COC(=O)C(C)(C)Cc1nc2cc(OC)ccc2n1Cc1ccccc1Cl` [Compound 58], the IC50 was > 20 µM.
As to `CCOC(=O)C(C)(C)Cc1c(SCC(C)(C)C)c2cc(C(C)C)ccc2n1Cc1ccc(Cl)cc1` [Compound 4, ethyl 3-(1-(4-chlorobenzyl)-5-isopropyl-3-(neopentylthio)-1H-indol-2-yl)-2,2-dimethylpropanoate], the IC50 is > 20 µM.
Turning to `COc1ccc2c(c1)nc(C(C)c1ccc(Br)cc1)n2Cc1ccccc1Cl` (centres unmarked) [Compound 39], the IC50 was 5 to 10 µM.
Consider `CC(C)(C)CC(=O)c1c(CC(C)(C)CO)n(Cc2ccc(Cl)cc2)c2ccc(O)cc12` [Compound 25], for which the IC50 is > 20 µM.
Take `COc1ccc2c(c1)c(CCC(C)(C)C)c(CC(C)(C)CO)n2Cc1ccc(Cl)cc1` [Compound 26]: the IC50 is 1 to 5 µM.
`CC(C)c1ccc2c(c1)c(SC(C)(C)C)c(CCC(=O)O)n2Cc1ccc(Cl)cc1` [Compound 11, 3-(3-(tert-butylthio)-1-(4-chlorobenzyl)-5-isopropyl-1H-indol-2-yl) Propanoic Acid]: the IC50 is 5 to 10 µM.
Turning to `CC(C)c1ccc2c(c1)c(SCC(C)(C)C)c(CC(C)(C)C(=O)O)n2Cc1ccc(Cl)cc1` [Compound 3], the IC50 fell in the range of 1 to 5 µM.
Take `COc1ccc2c(c1)nc(C(C)c1ccc(C#N)cc1)n2Cc1ccccc1Cl` (centres unmarked) [Compound 40]: the IC50 was > 20 µM.
For `COC(=O)C(C)(C)Cc1c(C(=O)c2ccc(Cl)cc2)c2ccc(C(C)C)cc2n1CC1CCC1` [Compound 28, methyl 3-(3-(4-chlorobenzoyl)-1-(cyclobutylmethyl)-6-isopropyl-1H-indol-2-yl)-2,2-dimethylpropanoate], the IC50 was > 20 µM.
On to `COC(=O)Cc1c(SC(C)(C)C)c2cc(C(C)C)ccc2n1Cc1ccc(Cl)cc1` [Compound 14, methyl 2-(3-(tert-butylthio)-1-(4-chlorobenzyl)-5-isopropyl-1H-indol-2-yl)acetate], for which the IC50 was > 20 µM.
Still for that read-out and setting: for `COC(=O)Cc1ccc(C(C)c2nc3cc(OC)ccc3n2Cc2ccccc2Cl)cc1` (centres unmarked) [Compound 46] the value was 10 to 20 µM; for `CC(C)c1ccc2c(C(=O)c3ccc(Cl)cc3)c(CC(C)(C)C(=O)O)n(CC3CCC3)c2c1` [Compound 27], 5 to 10 µM; for `CCOC(=O)CCc1c(SC(C)(C)C)c2cc(C(C)C)ccc2n1Cc1ccc(Cl)cc1` [Compound 12], > 20 µM.
The same measure, in the same setting: under `Cc1coc(C(C)(C)Cc2c(SC(C)(C)C)c3cc(O)ccc3n2Cc2ccc(Cl)cc2)n1` [Compound 32] stands 1 to 5 µM; under `CC(C)c1ccc2c(c1)c(SC(C)(C)C)c(CC(C)(C)C)n2Cc1ccc(Cl)cc1` [Compound 15], > 20 µM; under `COc1ccc2c(c1)c(SC(C)(C)C)c(CC(C)(C)c1nc(C)co1)n2Cc1ccc(Cl)cc1` [Compound 31], > 20 µM.
As to `COc1ccc2c(c1)c(SC(C)(C)C)c(CC(C)(C)c1nnnn1C)n2Cc1ccc(Cl)cc1` [Compound 35, 3-(tert-butylthio)-1-(4-chlorobenzyl)-5-methoxy-2-(2-methyl-2-(1-methyl-1H-tetrazol-5-yl)propyl)-1H-indole], the IC50 was 5 to 10 µM.
Still for that read-out and setting: for `CC(C)(C)CC(=O)c1c(CC(C)(C)C(=O)O)n(Cc2ccc(Cl)cc2)c2ccc(O)cc12` [Compound 19] the value was > 20 µM.
As to `CCOC(=O)C(C)(C)Cc1c(S(=O)(=O)CC(C)(C)C)c2cc(C(C)C)ccc2n1Cc1ccc(Cl)cc1` [Compound 8], the IC50 was in the range of 10 to 20 µM.
Consider `CC(C)(Cc1c(C(=O)c2ccc(Cl)cc2)c2ccc(O)cc2n1CC1CCC1)C(=O)O` [Compound 29, 3-(3-(4-chlorobenzoyl)-1-(cyclobutylmethyl)-6-hydroxy-1H-indol-2-yl)-2,2-dimethylpropanoic Acid], for which the IC50 is > 20 µM.
Take `COc1ccc2c(c1)nc(C(C)c1ccc(CO)cc1)n2Cc1ccccc1Cl` (centres unmarked) [Compound 43]: the IC50 is > 20 µM.
`CC(C)c1cnc2c(c1)c(C(=O)C1CCC1)c(CC(C)(C)C(=O)O)n2Cc1ccc(Cl)cc1` [Compound 16, 3-(1-(4-chlorobenzyl)-3-(cyclobutanecarbonyl)-5-isopropyl-1H-pyrrolo-[2,3-b]pyridin-2-yl)-2,2-dimethylpropanoic acid] returned an IC50 of 10 to 20 µM.
`COc1ccc2c(c1)c(SC(C)(C)C)c(CC(C)(C)c1nnn(C)n1)n2Cc1ccc(Cl)cc1` [Compound 36, 3-(tert-butylthio)-1-(4-chlorobenzyl)-5-methoxy-2-(2-methyl-2-(2-methyl-2H-tetrazol-5-yl)propyl)-1H-indole]: the IC50 was 5 to 10 µM.
On the same count and under the same terms, for `COc1ccc2c(c1)nc(C(C)c1ccc(CCO)cc1)n2Cc1ccccc1Cl` (centres unmarked) [Compound 47] the value was > 20 µM; for `CC(C)Cc1ccc(C(C)c2cc3cc(O)ccc3n2Cc2cccc(Cl)c2)cc1` (centres unmarked) [Compound 49], 1 to 5 µM; for `CCOC(=O)C(C)(C)Cc1c(C(=O)C2CCC2)c2cc(C(C)C)ccc2n1Cc1ccc(Cl)cc1` [Compound 2, ethyl 3-(1-(4-chlorobenzyl)-3-(cyclobutanecarbonyl)-5-isopropyl-1H-indol-2-yl)-2,2-dimethylpropanoate], > 20 µM.
As to `COc1ccc2c(c1)nc(C(C)c1ccc(CC(=O)O)cc1)n2Cc1ccccc1Cl` (centres unmarked) [Compound 45], the IC50 was > 20 µM.
With `CCOC(=O)C(C)(C)Cc1c(SC(C)(C)C)c2cc(OC)cnc2n1Cc1ccc(Cl)cc1` [Compound 18], the IC50 is > 20 µM.
In the case of `CC(C)c1ccc2c(c1)c(C(=O)C1CCC1)c(CC(C)(C)C(=O)O)n2Cc1ccc(Cl)cc1` [Compound 1, 3-(1-(4-chlorobenzyl)-3-(cyclobutanecarbonyl)-5-isopropyl-1H-indol-2-yl)-2,2-dimethylpropanoic acid], the IC50 was in the range of 1 to 5 µM.
As to `COC(=O)C(C)(C)Cc1c(C(=O)CC(C)(C)C)c2cc(OC)ccc2n1Cc1ccc(Cl)cc1` [Compound 21], the IC50 was > 20 µM.
`CC(C)Cc1ccc(C(C)c2nc3cc(C(=O)O)ccc3n2Cc2ccccc2Cl)cc1` (centres unmarked) [Compound 53] returned an IC50 of 10 to 20 µM.
Regarding `CC(C)(C)CCc1c(CC(C)(C)CO)n(Cc2ccc(Cl)cc2)c2ccc(O)cc12` [Compound 20], the IC50 lay within 1 to 5 µM.
In the case of `CCOC(=O)C(C)(C)Cc1c(C(=O)c2ccc(Cl)cc2)c2ccc(O)cc2n1CC1CCC1` [Compound 30, Ethyl 3-(3-(4-chlorobenzoyl)-1-(cyclobutylmethyl)-6-hydroxy-1H-indol-2-yl)-2,2-dimethylpropanoate], the IC50 was > 20 µM.
In the case of `COc1ccc2c(c1)c(C(=O)CC(C)(C)C)c(CC(C)(C)CO)n2Cc1ccc(Cl)cc1` [Compound 23], the IC50 was in the range of 5 to 10 µM.
Still for that read-out and setting: for `Cc1c(-c2ccc(CC(C)C)cc2)c2cc(O)ccc2n1Cc1ccccc1Cl` [Compound 55] the value was 1 to 5 µM; for `COC(=O)C(C)(C)Cc1c(C(=O)CC(C)(C)C)c2cc(O)ccc2n1Cc1ccc(Cl)cc1` [Compound 24], 1 to 5 µM; for `CC(C)Cc1ccc(-c2nc3cc(O)ccc3n2Cc2ccccc2Cl)cc1` [Compound 51], 5 to 10 µM.
Compound `CC(C)c1ccc2c(c1)c(S(=O)(=O)CC(C)(C)C)c(CC(C)(C)C(=O)O)n2Cc1ccc(Cl)cc1` [Compound 7] gave an IC50 of 10 to 20 µM.
Take `CC(C)c1ccc2c(c1)c(SC(C)(C)C)c(CC(=O)O)n2Cc1ccc(Cl)cc1` [Compound 13, 2-(3-(tert-butylthio)-1-(4-chlorobenzyl)-5-isopropyl-1H-indol-2-yl) Acetic Acid]: the IC50 was in the range of 10 to 20 µM.
Regarding `COc1ccc2c(c1)nc(C(C)c1ccc(CC#N)cc1)n2Cc1ccccc1Cl` (centres unmarked) [Compound 44], the IC50 was > 20 µM.
Regarding `COc1ccc2c(c1)nc(C(C)c1ccc(C(=O)O)cc1)n2Cc1ccccc1Cl` (centres unmarked) [Compound 41], the IC50 was > 20 µM.
Take `CC(C)c1ccc2c(c1)c([S+]([O-])CC(C)(C)C)c(CC(C)(C)C(=O)O)n2Cc1ccc(Cl)cc1` (centres unmarked) [Compound 5]: the IC50 is > 20 µM.
As for `CCOC(=O)C(C)(C)Cc1c(C(=O)C(C)C)c2cc(C(C)C)ccc2n1Cc1ccc(Cl)cc1` [Compound 10, Ethyl 3-(1-(4-chlorobenzyl)-3-isobutyryl-5-isopropyl-1H-indol-2-yl)-2,2-dimethylpropanoate], the IC50 is > 20 µM.
Same read-out and setting: for `COc1ccc2c(c1)nc(CC(C)(C)C(=O)O)n2Cc1ccccc1Cl` [Compound 57] the value was > 20 µM.
As for `COc1ccc2c(c1)c(C(=O)CC(C)(C)C)c(CC(C)(C)C(=O)O)n2Cc1ccc(Cl)cc1` [Compound 22], the IC50 was > 20 µM.
`COC(=O)c1ccc(C(C)c2nc3cc(OC)ccc3n2Cc2ccccc2Cl)cc1` (centres unmarked) [Compound 42]: the IC50 is > 20 µM.
Still for that read-out and setting: under `CCc1noc(C(C)(C)Cc2c(SC(C)(C)C)c3cc(O)ccc3n2Cc2ccc(Cl)cc2)n1` [Compound 34] stands 5 to 10 µM.

The test is the same for the next values; noted with them: tumor cells treated 48 hours, cell survival by MTT.
Regarding “3-(tert-butylthio)-1-(4-chlorobenzyl)-2-(2-methyl-2-(2-methyl-2H-tetrazol-5-yl)propyl)-1H-indol-5-ol [Compound 38]”, the IC50 is 1 to 5 µM.
